Measurements published in the supplement of paper PMC10627819.

Assays:
[1] = system: S. aureus Newman; assay: Bliss interaction score (quartile over a dose matrix) (fitness difference); higher = more antagonism (negative = synergy)
How it was run: (§1)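 Combination data were used to infer fitness under each single drug. Fitness is the OD595 at entry into stationary phase divided by the robust mean of the plate's no-drug wells, with a cap of 1. The Bliss score is the observed minus the expected product fitness, summarised by quartiles over technical, biological and donor/recipient replicates.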

[2] = system: B. subtilis 168; assay: as above
How it was run: as §1

[3] = system: S. pneumoniae D39V; assay: as above
How it was run: as §1

[4] = system: S. aureus DSM 20231; assay: as above
How it was run: as §1

[5] = system: S. aureus Newman; assay: fitness (endpoint OD595 vs no drug) (fraction); higher = more growth
How it was run: (§2)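 Each well of a 384-well plate received 30 µl of culture at OD595 0.01, or 55 µl for S. pneumoniae. TSB, LB Lennox or CY served as media at 37 °C. OD595 was taken every 30 min for 14 h and corrected by subtracting the first reading. Fitness is the optical density at stationary-phase entry divided by the robust mean of no-drug controls, capped at 1.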

[6] = system: S. pneumoniae D39V; assay: as above
How it was run: as §2

[7] = system: S. aureus DSM 20231; assay: as above
How it was run: as §2
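For Bliss interaction score (quartile over a dose matrix) in this document: first quartile when negative (synergy) and third quartile when positive (antagonism).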

C[n+]1ccc(-c2cc[n+](C)cc2)cc1 [Paraquat] + Cn1nnc(-c2ccc(-c3ccc(N4C[C@H](CO)OC4=O)cc3F)cn2)n1 [Tedizolid]
Details	Bliss interaction score
[1]	-0.041
[2]	0.075
[3]	-0.0684
[4]	0.0784

fitness
Details	partner 0.03125 µg/mL	partner 0.0625 µg/mL	partner 0.125 µg/mL	partner 0.25 µg/mL
[5], first compound 1.25 µg/mL	–	0.855	0.762	–
[5], first compound 2.5 µg/mL	–	0.902	0.805	–
[5], first compound 5 µg/mL	–	0.843	–	–
[6], first compound 1.5 µg/mL	0.926	0.948	0.86	–
[6], first compound 3 µg/mL	0.956	0.951	0.846	–
[6], first compound 6 µg/mL	0.932	0.934	0.817	–
[7], first compound 1.25 µg/mL	–	0.866	0.644	0.117
[7], first compound 2.5 µg/mL	–	0.803	0.583	0.161
[7], first compound 5 µg/mL	–	0.836	0.588	0.137

fitness, [6], one replicate
Details	first compound 1.5 µg/mL	first compound 3 µg/mL	first compound 6 µg/mL
partner 0.25 µg/mL	0.796	0.786	0.808
partner 0.5 µg/mL	0.626	0.603	0.602

Cn1c2cccc(=O)c-2nc2ccccc21 [Pyocyanin] + CN[C@H](CC(C)C)C(=O)N[C@H]1C(=O)N[C@@H](CC(N)=O)C(=O)N[C@H]2C(=O)N[C@H]3C(=O)N[C@H](C(=O)N[C@H](C(=O)O)c4cc(O)cc(O)c4-c4cc3ccc4O)[C@H](O)c3ccc(c(Cl)c3)Oc3cc2cc(c3O[C@@H]2O[C@H](CO)[C@@H](O)[C@H](O)[C@H]2O[C@H]2C[C@](C)(N)[C@H](O)[C@H](C)O2)Oc2ccc(cc2Cl)[C@H]1O [Vancomycin]
Details	Bliss interaction score
[1]	0.0784
[2]	-0.0201
[3]	0.0635
[4]	0.0758

Details	fitness
[5], first compound 1.25 µg/mL, partner 0.1875 µg/mL	0.907
[5], first compound 1.25 µg/mL, partner 0.375 µg/mL	0.899
[5], first compound 1.25 µg/mL, partner 0.75 µg/mL	0.84
[5], first compound 2.5 µg/mL, partner 0.1875 µg/mL	0.855
[5], first compound 2.5 µg/mL, partner 0.375 µg/mL	0.768
[5], first compound 5 µg/mL, partner 0.75 µg/mL	0.393
[6], first compound 0.325 µg/mL, partner 0.03125 µg/mL	≥ 1
[6], first compound 0.325 µg/mL, partner 0.0625 µg/mL	0.994
[6], first compound 0.325 µg/mL, partner 0.125 µg/mL	0.921
[6], first compound 0.65 µg/mL, partner 0.03125 µg/mL	0.962
[6], first compound 0.65 µg/mL, partner 0.0625 µg/mL	0.952
[6], first compound 1.3 µg/mL, partner 0.03125 µg/mL	0.686
[6], first compound 1.3 µg/mL, partner 0.0625 µg/mL	0.651
[7], first compound 1.25 µg/mL, partner 0.1875 µg/mL	0.796
[7], first compound 1.25 µg/mL, partner 0.375 µg/mL	0.856
[7], first compound 1.25 µg/mL, partner 0.75 µg/mL	0.921
[7], first compound 2.5 µg/mL, partner 0.1875 µg/mL	0.852
[7], first compound 2.5 µg/mL, partner 0.375 µg/mL	0.861
[7], first compound 2.5 µg/mL, partner 0.75 µg/mL	0.934
[7], first compound 5 µg/mL, partner 0.1875 µg/mL	0.659
[7], first compound 5 µg/mL, partner 0.375 µg/mL	0.745
[7], first compound 5 µg/mL, partner 0.75 µg/mL	0.726

fitness, [6], one replicate
Details	first compound 0.325 µg/mL	first compound 0.65 µg/mL
partner 0.25 µg/mL	0.584	0.724
partner 0.5 µg/mL	0.314	0.391

Cn1c2cccc(=O)c-2nc2ccccc21 [Pyocyanin] + Cn1nnc(-c2ccc(-c3ccc(N4C[C@H](CO)OC4=O)cc3F)cn2)n1 [Tedizolid]
Details	Bliss interaction score
[1]	-0.065
[2]	0.0439
[3]	-0.0686
[4]	0.0928

fitness
Details	partner 0.03125 µg/mL	partner 0.0625 µg/mL	partner 0.125 µg/mL	partner 0.25 µg/mL
[5], first compound 1.25 µg/mL	–	0.853	0.789	–
[5], first compound 2.5 µg/mL	–	0.764	0.651	–
[5], first compound 5 µg/mL	–	–	0.248	0.161
[6], first compound 0.325 µg/mL	0.976	0.978	0.798	–
[6], first compound 0.65 µg/mL	0.97	0.952	0.844	–
[6], first compound 1.3 µg/mL	0.753	0.731	0.652	–
[7], first compound 1.25 µg/mL	–	0.813	0.739	0.218
[7], first compound 2.5 µg/mL	–	0.8	0.701	0.242
[7], first compound 5 µg/mL	–	0.635	0.565	0.169

fitness, [6], one replicate
Details	first compound 0.325 µg/mL	first compound 0.65 µg/mL
partner 0.25 µg/mL	0.736	0.821
partner 0.5 µg/mL	0.344	0.545

CN(N=O)C(=O)N[C@@H](C=O)[C@@H](O)[C@H](O)[C@H](O)CO [Streptozotocin] + CN[C@H](CC(C)C)C(=O)N[C@H]1C(=O)N[C@@H](CC(N)=O)C(=O)N[C@H]2C(=O)N[C@H]3C(=O)N[C@H](C(=O)N[C@H](C(=O)O)c4cc(O)cc(O)c4-c4cc3ccc4O)[C@H](O)c3ccc(c(Cl)c3)Oc3cc2cc(c3O[C@@H]2O[C@H](CO)[C@@H](O)[C@H](O)[C@H]2O[C@H]2C[C@](C)(N)[C@H](O)[C@H](C)O2)Oc2ccc(cc2Cl)[C@H]1O [Vancomycin]
Details	Bliss interaction score
[1]	-0.0371
[2]	-0.0175
[3]	0.0398
[4]	0.0534

fitness
Details	first compound 0.15 µg/mL	first compound 0.3 µg/mL	first compound 0.6 µg/mL	first compound 1.2 µg/mL	first compound 2.4 µg/mL	first compound 4.8 µg/mL
[5], partner 0.1875 µg/mL	0.861	0.792	0.585	–	–	–
[5], partner 0.375 µg/mL	0.82	0.758	0.515	–	–	–
[5], partner 0.75 µg/mL	0.885	0.763	0.539	–	–	–
[6], partner 0.03125 µg/mL	–	–	–	0.998	0.99	0.999
[6], partner 0.0625 µg/mL	–	–	–	0.911	0.881	0.932
[6], partner 0.125 µg/mL	–	–	–	0.746	0.757	0.794
[7], partner 0.1875 µg/mL	0.861	0.757	0.716	–	–	–
[7], partner 0.375 µg/mL	0.912	0.845	0.767	–	–	–
[7], partner 0.75 µg/mL	0.946	0.895	0.839	–	–	–

fitness, [6], one replicate
Details	first compound 1.2 µg/mL	first compound 2.4 µg/mL	first compound 4.8 µg/mL
partner 0.25 µg/mL	0.655	0.639	0.536
partner 0.5 µg/mL	0.327	0.333	0.424

CN(N=O)C(=O)N[C@@H](C=O)[C@@H](O)[C@H](O)[C@H](O)CO [Streptozotocin] + Cn1nnc(-c2ccc(-c3ccc(N4C[C@H](CO)OC4=O)cc3F)cn2)n1 [Tedizolid]
Details	Bliss interaction score
[1]	-0.0487
[2]	-0.0702
[3]	-0.075
[4]	0.0552

fitness
Details	partner 0.03125 µg/mL	partner 0.0625 µg/mL	partner 0.125 µg/mL	partner 0.25 µg/mL
[5], first compound 0.15 µg/mL	–	0.822	0.737	0.304
[5], first compound 0.3 µg/mL	–	0.638	–	0.297
[5], first compound 0.6 µg/mL	–	0.471	0.409	0.151
[6], first compound 1.2 µg/mL	0.921	0.923	0.809	–
[6], first compound 2.4 µg/mL	0.921	0.908	0.828	–
[6], first compound 4.8 µg/mL	0.932	0.868	0.87	–
[7], first compound 0.15 µg/mL	–	0.799	0.553	0.207
[7], first compound 0.3 µg/mL	–	0.833	0.58	0.195
[7], first compound 0.6 µg/mL	–	0.701	0.5	0.152

fitness, [6], one replicate
Details	first compound 1.2 µg/mL	first compound 2.4 µg/mL	first compound 4.8 µg/mL
partner 0.25 µg/mL	0.598	0.653	0.791
partner 0.5 µg/mL	0.426	0.464	0.547

Cc1cc(NS(=O)(=O)c2ccc(N)cc2)no1 [Sulfamethoxazol] + CN[C@H](CC(C)C)C(=O)N[C@H]1C(=O)N[C@@H](CC(N)=O)C(=O)N[C@H]2C(=O)N[C@H]3C(=O)N[C@H](C(=O)N[C@H](C(=O)O)c4cc(O)cc(O)c4-c4cc3ccc4O)[C@H](O)c3ccc(c(Cl)c3)Oc3cc2cc(c3O[C@@H]2O[C@H](CO)[C@@H](O)[C@H](O)[C@H]2O[C@H]2C[C@](C)(N)[C@H](O)[C@H](C)O2)Oc2ccc(cc2Cl)[C@H]1O [Vancomycin]
Details	Bliss interaction score
[1]	0.0422
[2]	-0.0423
[3]	0.0444
[4]	0.0457

fitness
Details	first compound 1 µg/mL	first compound 2 µg/mL	first compound 4 µg/mL
[5], partner 0.1875 µg/mL	0.991	0.988	≥ 1
[5], partner 0.375 µg/mL	0.993	0.968	≥ 1
[5], partner 0.75 µg/mL	0.977	0.953	≥ 1
[6], partner 0.03125 µg/mL	0.964	0.961	0.97
[6], partner 0.0625 µg/mL	0.909	0.899	0.961
[6], partner 0.125 µg/mL	0.925	0.94	0.952
[7], partner 0.1875 µg/mL	0.929	0.932	0.94
[7], partner 0.375 µg/mL	≥ 1	≥ 1	0.962
[7], partner 0.75 µg/mL	1	0.983	0.998

one replicate
Details	fitness
[5], first compound 8 µg/mL, partner 0.1875 µg/mL	0.87
[5], first compound 8 µg/mL, partner 0.375 µg/mL	0.896
[5], first compound 8 µg/mL, partner 0.75 µg/mL	0.915
[6], first compound 1 µg/mL, partner 0.25 µg/mL	0.262
[6], first compound 1 µg/mL, partner 0.5 µg/mL	0.0171
[6], first compound 2 µg/mL, partner 0.25 µg/mL	0.258
[6], first compound 2 µg/mL, partner 0.5 µg/mL	0.0591
[6], first compound 4 µg/mL, partner 0.25 µg/mL	0.772
[6], first compound 4 µg/mL, partner 0.5 µg/mL	0.496

Cc1cc(NS(=O)(=O)c2ccc(N)cc2)no1 [Sulfamethoxazol] + Cn1nnc(-c2ccc(-c3ccc(N4C[C@H](CO)OC4=O)cc3F)cn2)n1 [Tedizolid]
Details	Bliss interaction score
[1]	0.0706
[2]	-0.056
[3]	-0.103
[4]	0.0501

fitness
Details	first compound 1 µg/mL	first compound 2 µg/mL	first compound 4 µg/mL
[5], partner 0.0625 µg/mL	0.975	0.958	0.965
[5], partner 0.125 µg/mL	0.901	0.94	0.934
[5], partner 0.25 µg/mL	0.576	–	–
[6], partner 0.03125 µg/mL	0.942	0.945	0.964
[6], partner 0.0625 µg/mL	0.933	0.944	0.914
[6], partner 0.125 µg/mL	0.754	0.781	0.777
[7], partner 0.0625 µg/mL	0.919	0.922	0.883
[7], partner 0.125 µg/mL	0.586	0.626	0.565
[7], partner 0.25 µg/mL	0.213	0.232	0.223

fitness, one replicate
Details	partner 0.0625 µg/mL	partner 0.125 µg/mL	partner 0.25 µg/mL	partner 0.5 µg/mL
[5], first compound 8 µg/mL	0.867	0.873	0.687	–
[6], first compound 1 µg/mL	–	–	0.48	0.549
[6], first compound 2 µg/mL	–	–	0.529	0.548
[6], first compound 4 µg/mL	–	–	0.558	0.505
